In patent US8809367B2, “1-1-Oxo-1,2,3,4-tetrahydroisoquinolin-7-yl)urea derivatives as N-formyl peptide receptor like-1 (FPRL-1) receptor modulators” (Allergan, Inc., priority 2011, dated 2014):

Target: T1, FPRL-1 (Homo sapiens, UniProt P25090)
T1 construct: expressed in transfected cells
T1 sequence (P25090 1-351): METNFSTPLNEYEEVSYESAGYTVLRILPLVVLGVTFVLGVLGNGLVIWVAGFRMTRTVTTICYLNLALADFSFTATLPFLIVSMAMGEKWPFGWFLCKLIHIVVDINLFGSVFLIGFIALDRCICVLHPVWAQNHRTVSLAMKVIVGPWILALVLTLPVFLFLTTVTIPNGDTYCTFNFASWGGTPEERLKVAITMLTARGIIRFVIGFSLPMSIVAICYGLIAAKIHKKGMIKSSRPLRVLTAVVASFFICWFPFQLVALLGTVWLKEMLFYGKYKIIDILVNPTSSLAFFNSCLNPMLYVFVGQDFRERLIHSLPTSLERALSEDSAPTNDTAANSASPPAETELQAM
Test: compound-induced calcium activity on FLIPR Tetra in CHO-Ga16 cells stably expressing FPRL1
Assay type: cell-based
Conditions: for FPRL-1 Ga16-CHO (eff): efficacy value in brackets under EC50; for EC50: tested at 0.61 to 10,000 nM
Experimental: CHO-Ga16 cells stably expressing FPRL1 were cultured in (F12, 10% FBS, 1% PSA, 400 μg/ml geneticin and 50 μg/ml hygromycin) and HEK-Gqi5 cells stable expressing FPR1 were cultured in (DMEM high glucose, 10% FBS, 1% PSA, 400 μg/ml geneticin and 50 μg/ml hygromycin). In general, the day before the experiment, 18,000 cells/well were plated in a 384-well clear bottom poly-d-lysine coated plate. The following day the screening compound-induced calcium activity was assayed on the FLIPR^Tetra. The drug plates were prepared in 384-well microplates using the EP3 and the MultiPROBE robotic liquid handling systems. Compounds were tested at concentrations ranging from 0.61 to 10,000 nM. Results are expressed as EC50 (nM) and efficacy values.

Compound | FPRL-1 Ga16-CHO (eff) | EC50 [µM]
CS(=O)(=O)c1ccc(NC(=O)Nc2ccc3c(c2)C(=O)N(CCc2c[nH]cn2)C(c2ccc(F)cn2)C3)cc1 (stereo not drawn) [Compound 32, 1-{3-(5-fluoropyridin-2-yl)-2-[2-(1H-imidazol-4-yl)ethyl]-1-oxo-1,2,3,4-tetrahydroisoquinolin-7-yl}-3-[4-(methylsulfonyl)phenyl]urea] | (1.0) | 0.0105
CC(=O)c1ccc(NC(=O)Nc2ccc3c(c2)C(=O)N(CCc2c[nH]cn2)C(c2ccc(Cl)c(Cl)c2)C3)cc1 (stereo not drawn) [Compound 20, 1-(4-acetylphenyl)-3-{3-(3,4-dichlorophenyl)-2-[2-(1H-imidazol-4-yl)ethyl]-1-oxo-1,2,3,4-tetrahydroisoquinolin-7-yl}urea] | (1.04) | 0.028
CS(=O)(=O)c1ccc(NC(=O)Nc2ccc3c(c2)C(=O)N(CCc2c[nH]cn2)C(c2ccc(C#N)cc2)C3)cc1 (stereo not drawn) [Compound 30, 1-{3-(4-cyanophenyl)-2-[2-(1H-imidazol-4-yl)ethyl]-1-oxo-1,2,3,4-tetrahydroisoquinolin-7-yl}-3-[4-(methylsulfonyl)phenyl]urea] | (1.00) | 0.02
CC(=O)c1ccc(NC(=O)Nc2ccc3c(c2)C(=O)N(CCCN)C(c2ccc(C#N)cc2)C3)cc1 (stereo not drawn) [Compound 1, 1-(4-acetylphenyl)-3-[2-(3-aminopropyl)-3-(4-cyanophenyl)-1-oxo-1,2,3,4-tetrahydroisoquinolin-7-yl]urea] | (1.00) | 0.04
CC(=O)c1ccc(NC(=O)Nc2ccc3c(c2)C(=O)N(CCc2c[nH]cn2)C(c2ccc(Cl)nc2)C3)cc1 (stereo not drawn) [Compound 25, 1-(4-acetylphenyl)-3-{3-(6-chloropyridin-3-yl)-2-[2-(1H-imidazol-4-yl)ethyl]-1-oxo-1,2,3,4-tetrahydroisoquinolin-7-yl}urea] | (0.81) | 0.024
CSc1ccc(NC(=O)Nc2ccc3c(c2)C(=O)N(CCCN)C(c2ccc(C#N)cc2)C3)cc1 (stereo not drawn) [Compound 5, 1-[2-(3-aminopropyl)-3-(4-cyanophenyl)-1-oxo-1,2,3,4-tetrahydroisoquinolin-7-yl]-3-[4-(methylthio)phenyl]urea] | (0.70) | 0.0025
CS(=O)(=O)c1ccc(NC(=O)Nc2ccc3c(c2)C(=O)N(CCCN)[C@@H](c2ccc(C#N)cc2)C3)cc1 [Compound 15, (R)-1-[2-(3-aminopropyl)-3-(4-cyanophenyl)-1-oxo-1,2,3,4-tetrahydroisoquinolin-7-yl]-3-[4-(methylsulfonyl)phenyl]urea] | (0.90) | 0.029
CS(=O)(=O)c1ccc(NC(=O)Nc2ccc3c(c2)C(=O)N(CCCN)C(c2ccc(C#N)cc2)C3)cc1 (stereo not drawn) [Compound 8, 1-[2-(3-aminopropyl)-3-(4-cyanophenyl)-1-oxo-1,2,3,4-tetrahydroisoquinolin-7-yl]-3-[4-(methylsulfonyl)phenyl]urea] | (0.86) | 0.01
CCSc1ccc(NC(=O)Nc2ccc3c(c2)C(=O)N(CCCN)C(c2ccc(C#N)cc2)C3)cc1 (stereo not drawn) [Compound 9, 1-[2-(3-aminopropyl)-3-(4-cyanophenyl)-1-oxo-1,2,3,4-tetrahydroisoquinolin-7-yl]-3-[4-(ethylthio)phenyl]urea] | (1.0) | 0.023
CSc1ccc(NC(=O)Nc2ccc3c(c2)C(=O)N(CCCN)C(C)C3)cc1 (stereo not drawn) [Compound 16, 1-[2-(3-aminopropyl)-3-methyl-1-oxo-1,2,3,4-tetrahydroisoquinolin-7-yl]-3-[4-(methylthio)phenyl]urea] | (0.89) | 0.015
CSc1ccc(NC(=O)Nc2ccc3c(c2)C(=O)N(CCc2c[nH]cn2)C(c2ccc(Cl)cn2)C3)cc1 (stereo not drawn) [Compound 28, 1-{3-(5-chloropyridin-2-yl)-2-[2-(1H-imidazol-4-yl)ethyl]-1-oxo-1,2,3,4-tetrahydroisoquinolin-7-yl}-3-[4-(methylthio)phenyl]urea] | (0.91) | 0.0135
C[S+]([O-])c1ccc(NC(=O)Nc2ccc3c(c2)C(=O)N(CCCN)C(c2ccc(C#N)cc2)C3)cc1 (stereo not drawn) [Compound 7, 1-[2-(3-aminopropyl)-3-(4-cyanophenyl)-1-oxo-1,2,3,4-tetrahydroisoquinolin-7-yl]-3-[4-(methylsulfinyl)phenyl]urea] | (0.92) | 
CNCCN1C(=O)c2cc(NC(=O)Nc3ccc(C(C)=O)cc3)ccc2CC1c1ccc(C#N)cc1 (stereo not drawn) [Compound 3, 1-(4-acetylphenyl)-3-{3-(4-cyanophenyl)-2-[2-(methylamino)ethyl]-1-oxo-1,2,3,4-tetrahydroisoquinolin-7-yl}urea] | (1.00) | 0.032
CS(=O)(=O)c1ccc(NC(=O)Nc2ccc3c(c2)C(=O)N(CCc2c[nH]cn2)C(c2ccc(Cl)cn2)C3)cc1 (stereo not drawn) [Compound 34, 1-{3-(5-chloropyridin-2-yl)-2-[2-(1H-imidazol-4-yl)ethyl]-1-oxo-1,2,3,4-tetrahydroisoquinolin-7-yl}-3-[4-(methylsulfonyl)phenyl]urea] | (0.99) | 0.0095
C[S+]([O-])c1ccc(NC(=O)Nc2ccc3c(c2)C(=O)N(CCc2c[nH]cn2)C(c2ccc(F)cn2)C3)cc1 (stereo not drawn) [Compound 31, 1-{3-(5-fluoropyridin-2-yl)-2-[2-(1H-imidazol-4-yl)ethyl]-1-oxo-1,2,3,4-tetrahydroisoquinolin-7-yl}-3-[4-(methylsulfinyl)phenyl]urea] | (0.93) | 0.0118
C[S+]([O-])c1ccc(NC(=O)Nc2ccc3c(c2)C(=O)N(CCc2c[nH]cn2)C(c2ccc(C#N)cc2)C3)cc1 (stereo not drawn) [Compound 29, 1-{3-(4-cyanophenyl)-2-[2-(1H-imidazol-4-yl)ethyl]-1-oxo-1,2,3,4-tetrahydroisoquinolin-7-yl}-3-[4-(methylsulfinyl)phenyl]urea] | (0.96) | 0.022
CSc1ccc(NC(=O)Nc2ccc3c(c2)C(=O)N(CCc2c[nH]cn2)C(c2ccc(Cl)nc2)C3)cc1 (stereo not drawn) [Compound 26, 1-{3-(6-chloropyridin-3-yl)-2-[2-(1H-imidazol-4-yl)ethyl]-1-oxo-1,2,3,4-tetrahydroisoquinolin-7-yl}-3-[4-(methylthio)phenyl]urea] | (0.89) | 0.0063
N#Cc1ccc(C2Cc3ccc(NC(=O)Nc4ccc(C(F)(F)F)cc4)cc3C(=O)N2CCc2c[nH]cn2)cc1 (stereo not drawn) [Compound 19, 1-{3-(4-cyanophenyl)-2-[2-(1H-imidazol-4-yl)ethyl]-1-oxo-1,2,3,4-tetrahydroisoquinolin-7-yl}-3-[4-(trifluoromethyl)phenyl]urea] | (0.78) | 0.032
N#Cc1ccc(C2Cc3ccc(NC(=O)Nc4ccc(C(F)(F)F)cc4)cc3C(=O)N2CCCN)cc1 (stereo not drawn) [Compound 4, 1-[2-(3-aminopropyl)-3-(4-cyanophenyl)-1-oxo-1,2,3,4-tetrahydroisoquinolin-7-yl]-3-[4-(trifluoromethyl)phenyl]urea] | (0.78) | 0.021
CC(=O)c1ccc(NC(=O)Nc2ccc3c(c2)C(=O)N(CCc2c[nH]cn2)C(c2ccc(C#N)cc2)C3)cc1 (stereo not drawn) [Compound 18, 1-(4-acetylphenyl)-3-{3-(4-cyanophenyl)-2-[2-(1H-imidazol-4-yl)ethyl]-1-oxo-1,2,3,4-tetrahydroisoquinolin-7-yl}urea] | (0.80) | 0.011
CSc1ccc(NC(=O)Nc2ccc3c(c2)C(=O)N(CCCN)[C@H](c2ccc(C#N)cc2)C3)cc1 [Compound 10, (S)-1-[2-(3-aminopropyl)-3-(4-cyanophenyl)-1-oxo-1,2,3,4-tetrahydroisoquinolin-7-yl]-3-[4-(methylthio)phenyl]urea] | (1.0) | 0.299
CSc1ccc(NC(=O)Nc2ccc3c(c2)C(=O)N(CCc2c[nH]cn2)C(c2ccco2)C3)cc1 (stereo not drawn) [Compound 23, 1-{3-(2-furyl)-2-[2-(1H-imidazol-4-yl)ethyl]-1-oxo-1,2,3,4-tetrahydroisoquinolin-7-yl}-3-[4-(methylthio)phenyl]urea] | (0.83) | 0.019
CC1Cc2ccc(NC(=O)Nc3ccc(S(C)(=O)=O)cc3)cc2C(=O)N1CCCN (stereo not drawn) [Compound 17, 1-[2-(3-aminopropyl)-3-methyl-1-oxo-1,2,3,4-tetrahydroisoquinolin-7-yl]-3-[4-(methylsulfonyl)phenyl]urea] | (88) | 0.15
